Experimental findings from patent US20070134744A1, “Epothilone resistant cell lines” (priority 2000, published 2007) are described below.

For experiment [1], the system named is EA40 cells. Put plainly: MTS growth inhibition assay. Particulars: EA40 cells, MTS, 72 hours drug; Table 1. The format is cell-based. The method, then: Growth inhibition may be analyzed using conventional methods, for example a MTS assay (PROMEGA, Wis.) may be used. In this assay approximately 4000 cells per well are seeded in 96 well plates in MEM supplemented with 10% fetal calf serum and incubated at 37° C. in 5.0% CO2. After 24 hours, dilutions of drug (concentration range used is between 1 nM and 1000 nM) are added and cells are allowed to incubate with drug for an additional 72 hours. The MTS reagent mixed with PMS (MTS:PMS 20:1 according to manufacturer's instructions) is then added and absorbance quantitated using a Thermomax microplate reader system according to conventional methods (Molecular Devices, Sunnyvale, Calif.). […] Six assays per drug per plate are performed. […]
As such, epothilone resistant cells would have some degree of cross-resistance to other P-gp substrates that could be reversed by P-gp inhibitors. To investigate this possibility, the cytotoxicity of the P-gp substrates, vincristine, doxorubicine and vinblastine is determined against epothilone A resistant cells using the MTS assay. […] When EA20 and resistant MDA/T0.3 cells are incubated with TAXOL® or epothilone A in the presence of [3′-Desoxy-3′-oxo-MeBmt]^1-[Val]^2-Ciclosporin (PSC-833; a P-gp inhibitor which is disclosed in U.S. Pat. No. 5,525,590), the resistance of MDA/T0.3 cells to TAXOL® is reversed but no effect on the resistance of EA20 to epothilone A is observed.
For orientation: Tetrazolium dyes change colour on reduction, which living cells bring about.

For experiment [2], the target named is T1, tubulin in 297/C5/0 cells (Homo sapiens, UniProt P07437, T274P).
T1 construct: endogenous in cells; host or cells: 297/C5/0 and 298/D4/40 sublines of KB-31 (intact cells or hypotonic lysates)
Put plainly: Cell-based tubulin polymerization assay. The following applies: 2 hours, 0-1000 nM, vs KB-31. How it is done: (§1) Drug-induced changes in the ratios between unpolymerized and polymerized tubulin in intact and lysed cells, respectively, are assessed basically as described (Giannakakou et al, Int. J. Cancer 75: 57-63 (1998)). Briefly, for the assessment of cellular drug effects, 2×10^5 cells are seeded in a volume of 1 ml to maximally 6 wells per 24-well plate. After incubation for 18-24 hrs at 37° C. to allow for cell attachment, test substances are added to the cell culture medium to achieve the desired concentrations, followed by incubation of the cells for 2 hrs at 37° C. Final vehicle concentration is 1%. One plate at a time is then transferred to a dimmed tissue-culture hood and cells are washed twice with 1 ml of room-temperature phosphate-buffered saline lacking Ca^++ and Mg^++ (PBS/O). After careful removal of remaining PBS/O, 100 μl of room-temperature Hypotonic Lysis Buffer A (HLB/A: 20 mM Tris-HCl (pH 6.8), 1 mM Mg2Cl, 2 mM EGTA, 2 mM Pefabloc, 1 mM benzamidine, 10 μg/ml aprotinin, 10 μg/ml leupeptin, 0.5% Nonidet P-40) is added and plates are wrapped in aluminum foil to minimize artifacts due to light-driven tubulin polymerization. Following incubation for exactly 5 min at 37° C., cells are harvested by scraping and transferred to a room-temperature eppendorf tube. Harvested wells are washed once with 100 μl room temperature HLB/A and pooled with the corresponding initial samples. Tubes are vortexed for 5 seconds to aid cell lysis, followed by centrifugation for 10 min at room-temperature in a table-top centrifuge at 12′000×g to separate microtubules (pellet) from unpolymerized tubulin (supernatant). The supernatant is then carefully transferred to a fresh eppendorf tube and stored on ice until further processed. Meanwhile, the pelleted material is resuspended in 200 μl room-temperature Resuspension Buffer (RSB: 10 mM Tris-HCl (pH 7.5), 1.5 mM Mg2Cl, 2 mM EGTA, 1 mM Pefabloc, 1 mM benzamidine, 10 μg/ml aprotinin, 10 μg/ml leupeptin, 0.5% Nonidet P-40). Solubilization of the pellet is aided by placing the eppendorf tube for 30 seconds in a sonicator waterbath. […]

Experiment [3] addresses T2, tubulin in 298/D4/40 cells (Homo sapiens, UniProt P07437, T274P).
T2 construct: endogenous in cells; host or cells: 297/C5/0 and 298/D4/40 sublines of KB-31 (intact cells or hypotonic lysates)
Put plainly: Cell-based tubulin polymerization assay. Particulars: 2 hours, up to 1000 nM. The method, then:
as §1

For experiment [4], the target named is T3, tubulin in KB-31 cells (Homo sapiens, UniProt P07437).
T3 construct: decrease in the unpolymerized pool of tubulin in KB-31 cell lysates; endogenous in cells; host or cells: KB-31 human epidermoid carcinoma cells (intact cells or hypotonic lysates)
Put plainly: Cell-based tubulin polymerization assay. The following applies: 2 hours, 0-1000 nM. How it is done:
as §1

The structures appear in SMILES notation.

T3 sequence (P68363 whole entry): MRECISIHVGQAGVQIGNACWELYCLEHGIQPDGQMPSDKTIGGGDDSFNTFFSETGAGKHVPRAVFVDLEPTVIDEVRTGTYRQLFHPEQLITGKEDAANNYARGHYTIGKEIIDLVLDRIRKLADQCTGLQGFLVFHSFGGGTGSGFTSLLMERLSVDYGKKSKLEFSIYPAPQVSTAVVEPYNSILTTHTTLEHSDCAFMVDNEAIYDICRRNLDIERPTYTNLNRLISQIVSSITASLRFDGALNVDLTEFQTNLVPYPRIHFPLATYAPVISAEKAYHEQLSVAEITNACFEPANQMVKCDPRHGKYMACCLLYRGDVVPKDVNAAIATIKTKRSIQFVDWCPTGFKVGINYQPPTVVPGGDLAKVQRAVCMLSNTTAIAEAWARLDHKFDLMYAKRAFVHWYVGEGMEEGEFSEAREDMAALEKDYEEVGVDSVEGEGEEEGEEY
T3 sequence (P07437 whole entry): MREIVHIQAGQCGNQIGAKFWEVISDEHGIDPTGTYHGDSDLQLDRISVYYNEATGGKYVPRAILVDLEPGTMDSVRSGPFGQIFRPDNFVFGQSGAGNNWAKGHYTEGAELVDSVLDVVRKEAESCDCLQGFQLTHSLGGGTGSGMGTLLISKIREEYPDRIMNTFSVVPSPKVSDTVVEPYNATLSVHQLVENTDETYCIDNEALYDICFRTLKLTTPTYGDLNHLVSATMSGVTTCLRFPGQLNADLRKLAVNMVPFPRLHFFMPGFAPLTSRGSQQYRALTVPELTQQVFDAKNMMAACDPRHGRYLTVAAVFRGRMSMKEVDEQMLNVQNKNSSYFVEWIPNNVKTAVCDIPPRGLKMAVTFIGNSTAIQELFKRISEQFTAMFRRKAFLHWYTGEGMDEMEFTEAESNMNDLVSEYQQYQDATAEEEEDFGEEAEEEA
T1 sequence (P07437 whole entry T274P): as the sequence (P07437 whole entry) above, with T274P counted along it
T1 sequence (P68363 whole entry partner): as the sequence (P68363 whole entry) above
T2 sequence (P07437 whole entry T274P): as the sequence (P07437 whole entry) above, with T274P counted along it
T2 sequence (P68363 whole entry partner): as the sequence (P68363 whole entry) above

In the case of `C/C(=C\c1csc(C)n1)[C@@H]1C[C@@H]2O[C@@H]2CCC[C@H](C)[C@H](O)[C@@H](C)C(=O)C(C)(C)[C@@H](O)CC(=O)O1` [Epothilone A, epothilone A], in experiment [1], half-maximal inhibition (IC50) required 36 ± 2 nM. In addition, in experiment [2], the “drug concentrations required to decrease the unpolymerized tubulin fraction” value is listed as “significantly higher”. The “epothilone A-mediated tubulin polymerization” value in experiment [3] is on record as “completely refractory”. For the same compound, in experiment [4], the “unpolymerized tubulin in intact cells” value is reported as “dose-dependent decrease in the unpolymerized pool of tubulin”.
